{"source": "paper PMC12299477", "about": "(Viruses, 2025)", "key": {"[1]": {"test_system": "RSV-A2", "experiment": "Virus inhibition assay (plaque reduction), RSV-A2 on Hep-2 cells", "type": "cell-based", "settings": "human respiratory syncytial virus; RSV-A2, Hep-2 cells; read-out: EC50 (µM) (95% CI)"}, "[2]": {"test_system": "HCoV-OC43", "experiment": "Virus inhibition assay (focus reduction), HCoV-OC43 on MRC-5 cells", "type": "cell-based, human coronavirus", "settings": "Betacoronavirus 1, OC43, MRC5, read-out: EC50 (µM) (95% CI)"}, "[3]": {"test_system": "IFV-A H1N1", "experiment": "Virus inhibition assay (focus reduction), IFV-A H1N1 on MDCK cells", "type": "cell-based", "settings": "Influenza A virus, read-out: EC50 (µM) (95% CI)"}, "[4]": {"test_system": "RSV-A2", "experiment": "Virus inhibition assay, RSV-A2 on A549 cells", "type": "cell-based", "settings": "human respiratory syncytial virus, read-out: EC50 (µM) (95% CI)"}, "[5]": {"test_system": "RSV-B", "experiment": "Virus inhibition assay, RSV strain B WV/14617/85 on Hep-2 cells", "type": "cell-based", "settings": "human respiratory syncytial virus; RSV B WV/14617/85, Hep-2 cells; read-out: EC50 (µM) (95% CI)"}, "[6]": {"test_system": "HCoV-OC43", "experiment": "Virus inhibition assay, HCoV-OC43 on A549 cells", "type": "cell-based, human coronavirus", "settings": "Betacoronavirus 1, read-out: EC50 (µM) (95% CI)"}, "[7]": {"test_system": "HCoV-229E", "experiment": "Virus inhibition assay, HCoV-229E on MRC-5 cells", "type": "cell-based", "settings": "Human coronavirus 229E, MRC5, read-out: EC50 (µM) (95% CI)"}, "[8]": {"test_system": "IFV-A H1N1", "experiment": "Virus inhibition assay, IFV-A H1N1 on A549 cells", "type": "cell-based", "settings": "Influenza A virus, read-out: EC50 (µM) (95% CI)"}, "[9]": {"test_system": "IFV-A H3N2", "experiment": "Virus inhibition assay, IFV-A H3N2 on MDCK cells", "type": "cell-based", "settings": "Influenza A virus, read-out: EC50 (µM) (95% CI)"}, "[10]": {"test_system": "IFV-B", "experiment": "Virus inhibition assay, IFV-B on MDCK cells", "type": "cell-based", "settings": "unidentified influenza virus, read-out: EC50 (µM) (95% CI)"}, "[11]": {"experiment": "Cell viability MTS assay on MRC-5 cells", "type": "cell-based", "settings": "human, same conditions as HCoV inhibition assay, read-out: CC50 (µM) (95% CI)"}, "[12]": {"test_system": "Hep-2 cells", "experiment": "Cytotoxic effect microscopically visible in the RSV-A2 screening", "type": "cell-based, human", "parameters": "key: -: Cytotoxic effect microscopically visible", "settings": "33 µM"}, "[13]": {"test_system": "RSV-A2", "experiment": "Virus inactivation (virucidal) assay, RSV-A2", "type": "cell-based, respiratory syncytial virus", "settings": "EC90 dose, 2 h incubation with 200,000 PFUs"}, "[14]": {"test_system": "HCoV-OC43", "experiment": "Virus inactivation (virucidal) assay, HCoV-OC43", "type": "cell-based, human coronavirus", "settings": "EC90 dose, 2 h incubation with 200,000 FFUs"}, "[15]": {"test_system": "RSV-A2", "experiment": "Time-of-addition assay, RSV-A2", "type": "cell-based, respiratory syncytial virus"}, "[16]": {"test_system": "HCoV-OC43", "experiment": "Time-of-addition assay, HCoV-OC43", "type": "cell-based, human coronavirus", "settings": "for EC50: Betacoronavirus 1, HCoV-OC43"}, "[17]": {"test_system": "RSV-A2", "experiment": "Immunofluorescence of dsRNA and viral protein, RSV-A2 in Hep-2 cells", "type": "cell-based, respiratory syncytial virus", "settings": "EC50 (2µM) or 2-fold EC90 dose (30µM), 24h post-infection"}, "[18]": {"test_system": "RSV-A2", "experiment": "Anti-RSV activity on a 3D model of human bronchial epithelium", "type": "cell-based, respiratory syncytial virus", "settings": "for Reduction in RSV progeny: 72 h post-infection, 10,000 PFUs"}, "[19]": {"test_system": "human bronchial epithelium (MucilAir)", "experiment": "LDH cytotoxicity assay on 3D human bronchial epithelium", "type": "cell-based", "settings": "6 µM and 12 µM, harvested daily up to 72 h"}, "[20]": {"experiment": "in vitro", "settings": "human"}, "[21]": {"experiment": "Cell viability MTS assay on MDCK cells", "settings": "dog"}, "[22]": {"experiment": "Cell viability MTS assay on Hep-2 cells", "settings": "human"}}, "data": [{"compound": "CC(C)(CC(=O)O)NC(=O)c1cc(-c2ccccc2)c(=O)n2c1sc1ccc(OC3CCCCC3)cc12", "note": "[Compound 1]", "values": [{"measurement": "EC50", "setting": "[1]", "result": 1.3, "unit": "µM"}, {"measurement": "EC50", "setting": "[2]", "result": 4.83, "unit": "µM"}, {"measurement": "EC50", "setting": "[3]", "result": 5.49, "unit": "µM"}, {"measurement": "EC50", "setting": "[4]", "result": 7.78, "unit": "µM"}, {"measurement": "EC50", "setting": "[5]", "result": 4.23, "unit": "µM"}, {"measurement": "EC50", "setting": "[6]", "result": 8.14, "unit": "µM"}, {"measurement": "EC50", "setting": "[7]", "result": 45.3, "unit": "µM"}, {"measurement": "EC50", "setting": "[8]", "result": 6.29, "unit": "µM"}, {"measurement": "EC50", "setting": "[9]", "result": 5.96, "unit": "µM"}, {"measurement": "EC50", "setting": "[10]", "result": 4.21, "unit": "µM"}, {"measurement": "CC50", "setting": "[11]", "result": 59.6, "unit": "µM"}, {"measurement": "Cytotoxic effect microscopically visible", "setting": "[12]", "result": "- ^a"}, {"measurement": "Virucidal activity on extracellular RSV particle", "setting": "[13]", "result": "did not directly inactivate"}, {"measurement": "Virucidal activity: HCoV-OC43 titer", "setting": "[14]", "result": "modest—although negligible—reduction"}, {"measurement": "Activity against RSV, pre-treatment", "setting": "[15]; compound added 2 h before infection", "result": "not active"}, {"measurement": "Activity against RSV, co-treatment", "setting": "[15]; compound added with virus inoculum, first 2 h of infection", "result": "not active"}, {"measurement": "EC50", "setting": "[15]; human respiratory syncytial virus, RSV, treated 72 h after removal of viral inoculum, read-out: EC50, post-treatment", "result": 8.2, "unit": "µM"}, {"measurement": "EC50", "setting": "[16]; after infection, read-out: EC50, post-treatment", "result": 7.5, "unit": "µM"}, {"measurement": "EC50", "setting": "[16]; during infection, read-out: EC50, co-treatment", "result": 16.3, "unit": "µM"}, {"measurement": "Activity against HCoV-OC43, treatment before the infection", "setting": "[16]; pre-treatment", "result": "did not exert inhibitory activity"}, {"measurement": "Effect on nucleic acid replication and viral protein production of RSV-A2", "setting": "[17]", "result": "did not inhibit"}, {"measurement": "Reduction in RSV progeny", "setting": "[18]; 6 µM every 24 h", "result": 1.1, "unit": "log"}, {"measurement": "Reduction in RSV progeny", "setting": "[18]; 12 µM every 24 h", "result": 1.5, "unit": "log"}, {"measurement": "Morphology of the bronchial epithelial cells in infected treated sample", "setting": "[18]; brightfield images, compared to infected untreated", "result": "sufficiently preserved"}, {"measurement": "Anti-RSV immunopositivity of the epithelia", "setting": "[18]; end of experiment, immunofluorescence", "result": "reduction in immunopositivity"}, {"measurement": "Cytotoxic effect on the epithelia (LDH assay on basal media)", "setting": "[19]", "result": "did not exert any cytotoxic effect"}, {"measurement": "CC50", "setting": "[20]", "result": 57.6, "unit": "µM"}, {"measurement": "CC50", "setting": "[20]; CC50 (µM) (95% CI), A549 cells, HCoV OC43 assay conditions", "result": 150, "unit": "µM"}, {"measurement": "CC50", "setting": "[20]; CC50 (µM) (95% CI), A549 cells, RSV A2 assay conditions", "result": 30.8, "unit": "µM"}, {"measurement": "CC50", "setting": "[21]", "result": 41.1, "unit": "µM"}, {"measurement": "CC50", "setting": "[22]", "result": 61.3, "unit": "µM"}]}]}
